Data reported in publication PMC8795197, “Safety and activity of WX-0593 (Iruplinalkib) in patients with ALK- or ROS1-rearranged advanced non-small cell lung cancer: a phase 1 dose-escalation and dose-expansion trial” (Signal Transduction and Targeted Therapy, 2022).
Like-named read-outs stand apart in the source and are kept apart here.

What was measured:
[1] = Excretion and mass balance after [14C]WX-0593, bile-duct cannulation (BDC); type: in vivo; conditions: 0-72 hours, BDC rats
[2] = test system: Ba/F3 (EML4-ALK-C1156Y); experiment: Cell proliferation inhibition assay; type: cell-based
[3] = test system: Caco-2 cell monolayer; experiment: Caco-2 cell monolayer permeability assay; type: in vitro ADME
Excerpt: The objective of this study was to determine the bidirectional permeability and efflux ratio (ER) of the test article WX-0593 using the Caco-2 cell monolayer model.

[4] = in vivo; set-up: species or system nude mice; conditions: mouse
Experimental: The severely toxic dose in 10% of the animals (STD10) in rodents was > 30 mg/kg. At a dose of 10 mg/kg/day, AUC0-24h (Day 28) was 16800 h·ng/mL in males and 17300 h·ng/mL in females, which is 4.5 times and 4.7 times of the exposure at the effective dose in mice (2.5 mg/kg, AUC0-24h: 3700 h·ng/mL). At a dose of 30 mg/kg/day, AUC0-24h (Day 28) was 27100 h·ng/mL in males and 42400 h·ng/mL in females, which is 7.3 times and 11.5 times of the exposure at the effective dose in nude mice (2.5 mg/kg, AUC0-24h: 3700 h·ng/mL).

[5] = test system: Ba/F3 SLC34A2-ROS1-L2026M; experiment: Growth of transfected Ba/F3 cells (CellTiter-Glo, 3 days); type: cell-based; conditions: Mus musculus, BaF3
Experimental: (§1) Harvest cells during the logarithmic growth period and count cells using blood counting chamber. Adjust cell concentration with culture medium. Add 90µl cell suspensions to two 96-well plates to the final cell density as described before. Incubate the plate overnight in humidified incubator at 37℃ with 5% CO2. Dispense 10µl drug solution (10×) to each well (triplicate for each concentration), and the DMSO final concentration in culture medium is 0.1% [v/v]. Culture the plates for 3 days.On Day 3, Read luminescent using Multi Label Reader. The software of GraphPad Prism was used to calculate IC50. The graphical curves were fitted using a nonlinear regression model with a sigmoidal dose response.

[6] = test system: Ba/F3 CD74-ROS1-L1951R; experiment: as above; type: cell-based; conditions: Mus musculus, BaF3
Experimental: as §1

[7] = test system: Ba/F3 CD74-ROS1-D2033N; experiment: as above; type: cell-based; conditions: Mus musculus, BaF3
Experimental: as §1

[8] = test system: Ba/F3 CD74-ROS1-S1986Y; experiment: as above; type: cell-based; conditions: Mus musculus, BaF3
Experimental: as §1

[9] = test system: Ba/F3 SLC34A2-ROS1; experiment: as above; type: cell-based; conditions: Mus musculus, BaF3
Experimental: as §1

[10] = test system: Ba/F3 CD74-ROS1-S1986F; experiment: as above; type: cell-based; conditions: Mus musculus, BaF3
Experimental: as §1

[11] = test system: Ba/F3 SLC34A2-ROS1-G2032R; experiment: as above; type: cell-based; conditions: Mus musculus, BaF3
Experimental: as §1

[12] = Metabolic stability in liver microsomes; type: in vitro ADME; conditions: for half-life: read-out: elimination half-life
Excerpt: The objective of this study is to evaluate the metabolic stability of tested drug WX-0593 in CD-1 mice, SD rats, beagles, cynomolgus monkeys, and human liver microsomes.

[13] = Sprague-Dawley, rat, SD rats liver microsomes
[14] = beagle, dog, beagles liver microsomes
[15] = cynomolgus monkey, cynomolgus monkeys liver microsomes
[16] = mouse, CD-1 mice liver microsomes

COc1cc(N2CCC3(CCN(C)CC3)CC2)ccc1Nc1ncc(Cl)c(Nc2ccccc2P(C)(C)=O)n1 [WX-0593]
dose excreted in bile [1]: 30.56%
dose excreted in feces [1]: 32.04%
dose excreted in urine [1]: 30.73%
dose in cage rinses and washes [1]: 1.43%
mean radioactivity recovery rate [1]: 94.75%
growth inhibition [2]: significantly inhibits the growth
efflux transporter substrate [3]: very likely to be a substrate of efflux transporters
permeability ([3]; 50 µM): high permeability
permeability ([3]; 0.5 and 5 µM): low permeability
murine effective dose [4]: 2.5 mg/kg
AUC(0-t) ([4]; nude, 2.5 mg/kg): 3.7 µg·h/mL
IC50 [5]: 0.012 µM
IC50 [6]: 0.626 µM
IC50 [7]: 0.0338 µM
IC50 [8]: 0.0159 µM
IC50 [9]: 0.011 µM
IC50 [10]: 0.0224 µM
IC50 [11]: 0.584 µM
CLint scaled [12, 13]: < 1.04 L/h/kg
half-life [12, 13]: > 2.42 h
CLint scaled [12, 14]: 0.882 L/h/kg
half-life [12, 14]: 2.27 h
CLint scaled [12, 15]: < 0.78 L/h/kg
half-life [12, 15]: > 2.42 h
CLint scaled ([12]; human liver microsomes): < 0.57 L/h/kg
half-life ([12]; human liver microsomes): > 2.42 h
CLint scaled [12, 16]: 3.14 L/h/kg
half-life [12, 16]: 1.75 h
